Where “and” joins values, the source holds several entries; their conditions need not be identical. Equal values may be shown once. Entries after “also recorded” stand apart in the source; their conditions may differ.

Consider 5 compounds from publication PMC4648113 (Acta Pharmacologica Sinica, 2015).

The target of experiment [1] is T1, human α7 nAChR (Homo sapiens, UniProt P36544). The experiment is described as follows: Two-electrode voltage clamp. As to conditions: for Concentration needed to reach 30% of the response of ACh: oocyte assay; for Maximal response vs 3 mmol/L ACh: peak current normalized to 3 mmol/L ACh. It is filed as cell-based. For orientation: In two-electrode clamp one electrode senses voltage and the other passes current.

In experiment [2] the target is human α5β3γ2 GABAA receptor (Homo sapiens, UniProt P18507+P28472+P31644). The experiment is described as follows: TEVC in Xenopus oocytes, GABAA α5β3γ2. It counts as cell-based.
Experiment [3] has as its target human α1β3γ2 GABAA receptor (Homo sapiens, UniProt P14867+P18507+P28472). The experiment is described as follows: TEVC in Xenopus oocytes, GABAA α1β3γ2. It counts as cell-based.
Experiment [4] concerns the target T2, α7 nAChR (Rattus norvegicus, UniProt Q05941). As to the kind of experiment: biochemical.
Experiment [5] concerns the target T1, human α7 nAChR. As to the kind of experiment: TEVC, inhibition. It is filed as cell-based.
Experiment [6] has as its target native α7 nAChR in hippocampal neurons (Rattus norvegicus, UniProt Q05941). It is filed as cell-based.
Experiment [7] concerns the target human α3β3γ2 GABAA receptor (Homo sapiens, UniProt P18507+P28472+P34903). As to the kind of experiment: TEVC in Xenopus oocytes, GABAA α3β3γ2. It is filed as cell-based.
The target of the next experiment is rat α4β2 nAChR (Rattus norvegicus, UniProt P09483+P12390). As to the kind of experiment: TEVC in Xenopus oocytes, selectivity on α4β2. It is filed as cell-based.
For experiment [8], the system named is CA1 hippocampal pyramidal neurons. The experiment is described as follows: Spontaneous IPSC recordings in hippocampal brain slices. It counts as cell-based, rat.
Experiment [9] deals with human α2β3γ2 GABAA receptor (Homo sapiens, UniProt P18507+P28472+P47869). The experiment is described as follows: TEVC in Xenopus oocytes, GABAA α2β3γ2. It is filed as cell-based.
A further experiment has as its target rat α3β4 nAChR (Rattus norvegicus, UniProt P04757+P12392). The experiment is described as follows: TEVC in Xenopus oocytes, selectivity on α3β4. It is filed as cell-based.
Experiment [10] concerns the target T2, α7 nAChR. As to conditions: Ki ratio vs ACh.
Another experiment has as its target T3, human 5-HT3A receptor (Homo sapiens, UniProt P46098).
T3 sequence (P46098 24-478): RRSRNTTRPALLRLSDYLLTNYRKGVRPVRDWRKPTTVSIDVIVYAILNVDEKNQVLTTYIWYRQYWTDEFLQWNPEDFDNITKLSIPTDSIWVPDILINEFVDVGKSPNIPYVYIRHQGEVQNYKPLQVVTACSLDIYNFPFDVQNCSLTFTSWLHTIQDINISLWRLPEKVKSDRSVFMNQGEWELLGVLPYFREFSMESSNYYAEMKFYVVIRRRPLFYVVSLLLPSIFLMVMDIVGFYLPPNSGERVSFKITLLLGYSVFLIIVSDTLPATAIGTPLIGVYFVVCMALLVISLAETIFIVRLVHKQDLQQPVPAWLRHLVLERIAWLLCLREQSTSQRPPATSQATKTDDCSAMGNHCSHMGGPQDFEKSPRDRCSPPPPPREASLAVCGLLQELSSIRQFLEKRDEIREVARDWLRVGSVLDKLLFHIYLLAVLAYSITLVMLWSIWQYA
The experiment is described as follows: TEVC in Xenopus oocytes, selectivity on 5-HT3A. It counts as cell-based.

In experiment [11] the test system is ERK1/2 phosphorylation in PC12 cells. The experiment is described as follows: Western blot of ERK1/2 phosphorylation in PC12 cells. It is filed as cell-based, rat. The following applies: pre-incubation 10 min. For orientation: Immunoblotting shows a protein as a band on a membrane.
Where [12] appears, read: 100 μmol/L co-applied with 1 μmol/L GABA.
[13] abbreviates: 100 μmol/L, pre-incubation 1 min.
The mark [14] stands for this setting: Br-IQ17B alone, up to 100 μmol/L.

Chain of native α7 nAChR in hippocampal neurons (Q05941 23-502): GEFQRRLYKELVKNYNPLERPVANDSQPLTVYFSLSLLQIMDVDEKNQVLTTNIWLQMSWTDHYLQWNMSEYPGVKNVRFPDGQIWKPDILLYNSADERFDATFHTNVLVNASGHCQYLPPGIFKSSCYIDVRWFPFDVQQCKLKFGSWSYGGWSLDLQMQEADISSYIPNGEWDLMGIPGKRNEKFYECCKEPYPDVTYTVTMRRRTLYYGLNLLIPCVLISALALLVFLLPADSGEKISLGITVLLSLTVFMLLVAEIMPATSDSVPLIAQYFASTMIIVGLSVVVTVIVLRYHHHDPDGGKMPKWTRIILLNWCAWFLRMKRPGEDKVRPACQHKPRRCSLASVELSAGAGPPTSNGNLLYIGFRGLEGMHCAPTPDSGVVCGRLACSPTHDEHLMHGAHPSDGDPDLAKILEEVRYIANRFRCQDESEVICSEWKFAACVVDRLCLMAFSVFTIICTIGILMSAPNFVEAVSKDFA
T1 sequence (P36544 23-502): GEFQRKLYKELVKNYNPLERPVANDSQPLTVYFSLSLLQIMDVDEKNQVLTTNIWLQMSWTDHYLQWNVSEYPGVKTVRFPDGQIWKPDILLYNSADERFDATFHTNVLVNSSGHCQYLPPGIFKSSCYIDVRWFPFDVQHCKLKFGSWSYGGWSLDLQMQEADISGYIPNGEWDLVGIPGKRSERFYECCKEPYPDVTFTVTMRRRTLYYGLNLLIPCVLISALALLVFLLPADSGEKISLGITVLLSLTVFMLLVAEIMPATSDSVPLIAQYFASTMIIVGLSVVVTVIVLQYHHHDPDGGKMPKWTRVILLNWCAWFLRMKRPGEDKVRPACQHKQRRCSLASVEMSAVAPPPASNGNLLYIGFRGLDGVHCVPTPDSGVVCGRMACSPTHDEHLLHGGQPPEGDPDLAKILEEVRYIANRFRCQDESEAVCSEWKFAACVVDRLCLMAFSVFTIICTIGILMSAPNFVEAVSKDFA
Chain of rat α4β2 nAChR (P09483 31-630): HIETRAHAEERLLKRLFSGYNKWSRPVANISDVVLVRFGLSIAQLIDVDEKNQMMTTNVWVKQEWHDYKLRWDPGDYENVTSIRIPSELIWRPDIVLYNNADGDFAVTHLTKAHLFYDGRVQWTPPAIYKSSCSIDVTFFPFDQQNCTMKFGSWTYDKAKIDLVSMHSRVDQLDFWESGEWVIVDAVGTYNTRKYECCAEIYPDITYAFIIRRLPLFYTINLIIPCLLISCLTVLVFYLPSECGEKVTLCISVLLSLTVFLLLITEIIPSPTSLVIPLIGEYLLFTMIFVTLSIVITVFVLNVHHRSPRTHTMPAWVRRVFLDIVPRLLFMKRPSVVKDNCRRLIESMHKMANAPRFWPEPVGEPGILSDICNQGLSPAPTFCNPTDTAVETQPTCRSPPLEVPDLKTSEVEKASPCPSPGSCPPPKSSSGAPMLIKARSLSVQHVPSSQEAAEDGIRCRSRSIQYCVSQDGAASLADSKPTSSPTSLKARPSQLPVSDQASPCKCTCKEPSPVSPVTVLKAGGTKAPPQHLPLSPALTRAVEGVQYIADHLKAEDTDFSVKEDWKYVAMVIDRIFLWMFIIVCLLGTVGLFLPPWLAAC
Chain of rat α4β2 nAChR (P12390 25-500): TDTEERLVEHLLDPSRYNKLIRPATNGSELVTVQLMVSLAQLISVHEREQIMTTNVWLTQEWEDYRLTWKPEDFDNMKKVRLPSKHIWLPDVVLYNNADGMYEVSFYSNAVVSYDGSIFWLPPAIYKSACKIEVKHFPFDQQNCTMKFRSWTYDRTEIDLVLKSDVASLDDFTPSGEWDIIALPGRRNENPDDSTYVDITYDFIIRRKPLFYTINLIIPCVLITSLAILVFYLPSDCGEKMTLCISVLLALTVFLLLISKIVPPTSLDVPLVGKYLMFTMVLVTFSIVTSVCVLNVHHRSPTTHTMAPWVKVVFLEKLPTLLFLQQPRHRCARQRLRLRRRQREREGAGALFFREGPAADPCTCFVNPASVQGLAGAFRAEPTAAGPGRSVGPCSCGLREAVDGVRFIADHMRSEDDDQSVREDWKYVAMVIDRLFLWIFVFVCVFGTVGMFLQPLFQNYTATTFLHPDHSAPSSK
Chain of rat α3β4 nAChR (P04757 26-499): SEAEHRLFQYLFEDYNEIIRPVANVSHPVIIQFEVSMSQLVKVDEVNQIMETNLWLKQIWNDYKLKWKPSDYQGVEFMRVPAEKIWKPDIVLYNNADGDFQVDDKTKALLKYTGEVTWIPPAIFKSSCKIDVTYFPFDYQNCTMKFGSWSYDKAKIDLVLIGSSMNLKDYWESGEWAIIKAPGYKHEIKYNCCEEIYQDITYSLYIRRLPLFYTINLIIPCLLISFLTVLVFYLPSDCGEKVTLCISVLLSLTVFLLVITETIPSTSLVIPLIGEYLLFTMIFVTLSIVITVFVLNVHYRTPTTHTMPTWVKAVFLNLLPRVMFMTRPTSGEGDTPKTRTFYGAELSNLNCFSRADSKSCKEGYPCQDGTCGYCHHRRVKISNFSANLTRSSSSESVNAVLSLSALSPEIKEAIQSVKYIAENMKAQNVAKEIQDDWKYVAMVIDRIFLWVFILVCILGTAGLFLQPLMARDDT
Chain of rat α3β4 nAChR (P12392 21-495): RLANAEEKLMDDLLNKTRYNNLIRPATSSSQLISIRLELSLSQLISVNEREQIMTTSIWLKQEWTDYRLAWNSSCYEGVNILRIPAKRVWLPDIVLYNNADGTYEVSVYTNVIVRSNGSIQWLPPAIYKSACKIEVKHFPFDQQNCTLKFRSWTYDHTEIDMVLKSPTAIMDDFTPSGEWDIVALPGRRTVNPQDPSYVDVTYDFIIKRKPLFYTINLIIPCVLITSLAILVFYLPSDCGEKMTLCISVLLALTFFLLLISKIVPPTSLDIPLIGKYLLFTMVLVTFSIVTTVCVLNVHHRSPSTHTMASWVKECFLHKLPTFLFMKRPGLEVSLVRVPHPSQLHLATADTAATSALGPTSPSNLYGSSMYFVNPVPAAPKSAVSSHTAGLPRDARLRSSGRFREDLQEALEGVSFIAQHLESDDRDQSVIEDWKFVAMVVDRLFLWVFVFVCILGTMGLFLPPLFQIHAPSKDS
T2 sequence (Q05941 23-502): as the sequence (Q05941 23-502) above
Chain of human α3β3γ2 GABAA receptor (P34903 29-492): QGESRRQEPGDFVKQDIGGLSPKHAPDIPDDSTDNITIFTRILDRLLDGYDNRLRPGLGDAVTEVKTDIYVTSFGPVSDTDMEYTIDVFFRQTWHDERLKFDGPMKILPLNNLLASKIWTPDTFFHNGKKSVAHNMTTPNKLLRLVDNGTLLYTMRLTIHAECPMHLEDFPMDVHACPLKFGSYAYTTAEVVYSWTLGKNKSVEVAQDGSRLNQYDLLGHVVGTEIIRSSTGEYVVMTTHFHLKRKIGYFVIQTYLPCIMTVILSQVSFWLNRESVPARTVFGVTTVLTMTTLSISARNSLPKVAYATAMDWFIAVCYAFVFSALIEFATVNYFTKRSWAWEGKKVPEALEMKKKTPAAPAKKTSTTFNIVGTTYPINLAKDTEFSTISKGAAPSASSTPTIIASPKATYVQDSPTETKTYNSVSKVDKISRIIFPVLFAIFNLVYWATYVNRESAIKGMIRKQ
Chain of human α3β3γ2 GABAA receptor (P28472 26-473): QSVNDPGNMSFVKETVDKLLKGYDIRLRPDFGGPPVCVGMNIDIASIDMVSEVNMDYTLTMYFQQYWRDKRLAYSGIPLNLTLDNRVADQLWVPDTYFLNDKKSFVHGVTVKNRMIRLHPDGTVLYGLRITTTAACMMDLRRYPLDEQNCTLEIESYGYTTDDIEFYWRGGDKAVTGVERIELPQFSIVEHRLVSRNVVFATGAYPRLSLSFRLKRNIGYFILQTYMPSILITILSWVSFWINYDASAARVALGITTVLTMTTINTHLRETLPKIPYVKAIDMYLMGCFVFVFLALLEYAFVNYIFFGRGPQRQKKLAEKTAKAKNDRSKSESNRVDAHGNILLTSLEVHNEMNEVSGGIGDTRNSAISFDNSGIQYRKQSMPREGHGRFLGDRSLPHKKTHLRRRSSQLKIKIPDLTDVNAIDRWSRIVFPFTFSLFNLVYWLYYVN
Chain of human α3β3γ2 GABAA receptor (P18507 40-475): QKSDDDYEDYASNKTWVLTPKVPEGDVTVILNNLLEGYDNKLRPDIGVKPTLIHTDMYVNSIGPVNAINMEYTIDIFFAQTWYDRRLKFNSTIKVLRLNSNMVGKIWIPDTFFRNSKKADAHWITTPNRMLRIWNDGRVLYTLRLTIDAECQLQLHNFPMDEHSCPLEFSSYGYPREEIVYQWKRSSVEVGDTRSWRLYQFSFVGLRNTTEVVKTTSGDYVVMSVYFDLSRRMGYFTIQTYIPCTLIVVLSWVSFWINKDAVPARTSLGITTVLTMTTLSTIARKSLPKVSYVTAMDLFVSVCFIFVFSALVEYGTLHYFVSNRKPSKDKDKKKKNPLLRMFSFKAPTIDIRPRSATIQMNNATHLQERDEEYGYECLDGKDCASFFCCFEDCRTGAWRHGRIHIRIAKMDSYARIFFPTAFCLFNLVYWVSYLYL
Chain of human α5β3γ2 GABAA receptor (P31644 32-462): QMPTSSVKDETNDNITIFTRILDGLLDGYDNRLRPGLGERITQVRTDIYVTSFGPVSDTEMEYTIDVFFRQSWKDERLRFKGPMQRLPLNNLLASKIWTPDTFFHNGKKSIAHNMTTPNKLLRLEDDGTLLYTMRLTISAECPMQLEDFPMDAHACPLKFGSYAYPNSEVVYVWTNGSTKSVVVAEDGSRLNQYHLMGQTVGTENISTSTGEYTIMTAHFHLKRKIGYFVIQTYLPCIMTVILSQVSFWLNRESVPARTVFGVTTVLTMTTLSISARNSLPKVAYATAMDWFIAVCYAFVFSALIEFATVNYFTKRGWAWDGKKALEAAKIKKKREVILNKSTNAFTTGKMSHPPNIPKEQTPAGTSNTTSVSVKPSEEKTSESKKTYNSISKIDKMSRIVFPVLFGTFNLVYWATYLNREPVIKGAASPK
Chain of human α5β3γ2 GABAA receptor (P28472 26-473): as the sequence (P28472 26-473) above
Chain of human α5β3γ2 GABAA receptor (P18507 40-475): as the sequence (P18507 40-475) above

The term EC50 denotes the concentration giving half of the maximal effect. With `O=C(N[C@H]1CN2CCC1CC2)c1cc2cccc(Cl)c2s1` [EVP-6124], on human α7 nAChR [1], the 50% effective concentration (EC50) came to 0.45 ± 0.08 µM, the “Concentration needed to reach 30% of the response of ACh” value stood at 3 µmol/L and the “Maximal response vs 3 mmol/L ACh” value was 30.6%±1.8%.

Broadly, the Ki is the equilibrium dissociation constant of an inhibitor or competing ligand from its target. High values mean lower affinity, low ones higher affinity. In general, IC50 refers to the concentration that gives 50% inhibition. Take `O=C(N[C@H]1CN2CCC1CC2)c1cc2cccc(Br)n2c1` [Br-IQ17B, N-[(3R)-1-azabicyclo[2,2,2]oct-3-yl]-5-bromoindolizine-2-carboxamide]: the “Allosteric modulation of GABAA α5β3γ2” value in [2] (setting [12]) is listed as “no allosteric modulation”. Besides, the “Effect on GABAA α5β3γ2” value in experiment [2] (setting [13]) is “no observable effects”. Moreover, on human α7 nAChR [1] (co-applied with 1 μmol/L PNU-120596), the “Hill coefficient in the presence of PNU-120596” value is recorded as 2.4±0.1. The “Hill coefficient, activation of α7 current” value at human α7 nAChR [1] (compound alone) is recorded as 1.2±0.1. In addition, the “Concentration needed to reach 30% of the response of ACh” value on human α7 nAChR [1] was determined as 1.5 µmol/L. In addition, the “Maximal response vs 3 mmol/L ACh” value on human α7 nAChR [1] is 64.3%±3.6%. Further, in [3] (setting [12]), the “Allosteric modulation of GABAA α1β3γ2” value was “no allosteric modulation”. Moreover, in experiment [3] (setting [13]), the “Effect on GABAA α1β3γ2” value is on record as “no observable effects”. This compound had an inhibition constant Ki at α7 nAChR [4] of 0.0149 ± 0.0032 µM. In addition, the IC50 was 0.0285 ± 0.0025 µM against human α7 nAChR [5]; over 100 µM at rat α4β2 nAChR; ~382 µM and 382 µM and ~381 µM against rat α3β4 nAChR (IC50, inhibition of ACh-evoked α3β4 current, co-applied with 300 μmol/L ACh). The “Effect of low concentration on ACh-mediated peak current” value on human α7 nAChR [5] (3 nmol/L Br-IQ17B, 100 μmol/L ACh) was “increased the ACh-mediated peak current”. Further, the “Hill coefficient, inhibition of ACh-evoked α7 current” value on human α7 nAChR [5] (1-min sustained exposure, then 100 μmol/L ACh) worked out at 2.8±0.3. Further, in experiment [6], the “Current evoked in hippocampal neurons” value was “evoked α7 currents with fast onset and rapid decay”. The “Allosteric modulation of GABAA α3β3γ2” value in experiment [7] (setting [12]) is on record as “no allosteric modulation”. The “Effect on GABAA α3β3γ2” value in experiment [7] (setting [13]) is “no observable effects”. Further, the EC50 at rat α4β2 nAChR, at rat α3β4 nAChR and at human 5-HT3A receptor was over 100 µM each time. Also, the “Agonist activity on α4β2” value at rat α4β2 nAChR (setting [14]) is listed as “did not induce any current; also recorded: no detectable agonist activity”. Also, at rat α4β2 nAChR (pre-incubation 1 min or co-application with ACh), the “Effect on ACh-evoked α4β2 current” value is “no enhancement or inhibition”. Also, the “Maximum effect vs 3 mmol/L ACh or 10 μmol/L 5-HT” value on rat α4β2 nAChR (α4β2, Rat) was found to be 0; on rat α3β4 nAChR (α3β4, Rat) it was 0; on human 5-HT3A receptor (5-HT3A, Human) it was 0. Also, the “sIPSC frequency with co-application of PNU-120596 and Br-IQ17B” value in experiment [8] (Br-IQ17B 10 μmol/L + PNU-120596 1 μmol/L, 1–5 min, from 4.6±0.7 Hz) was found to be 7.8±0.7 Hz. Besides, in [8] (Br-IQ17B 10 μmol/L + PNU-120596 1 μmol/L, 5 out of 6 neurons, vs control or PNU120596 alone), the “Increase of IPSC peak amplitudes of individual neurons” value is reported as 1.3 to 4.9 times. In addition, in experiment [8] (co-application of Br-IQ17B and PNU-120596, vs 25.3±1.4 pA), the “IPSC amplitude in the one neuron out of six without amplitude change” value came out at 25.9±1.2 pA. For the same compound, the “Allosteric modulation of GABAA α2β3γ2” value in experiment [9] (setting [12]) was “no allosteric modulation”. Also, the “Effect on GABAA α2β3γ2” value in experiment [9] (setting [13]) is listed as “no observable effects”. The “Agonist activity on α3β4” value at rat α3β4 nAChR (setting [14]) is “did not induce any current; also recorded: no detectable agonist activity”. For the same compound, the “Hill coefficient, inhibition of α3β4” value on rat α3β4 nAChR (co-applied with 300 μmol/L ACh) was 0.9±0.1. Moreover, the “Fold more potent than ACh in [3H]-MLA displacement” value on α7 nAChR [10] was “approximately 300 fold”. Besides, at human 5-HT3A receptor (Br-IQ17B alone, 0.1–100 μmol/L), the “Agonist activity on 5-HT3A” value is “did not show any agonist activities”. Moreover, at human 5-HT3A receptor (co-applied with 10 μmol/L 5-HT), the “Hill coefficient, inhibition of 5-HT3A” value came out at 2.1±0.1.

For `CCN1C[C@]2(COC(=O)c3ccccc3N3C(=O)C[C@H](C)C3=O)CC[C@H](OC)[C@@]34[C@@H]5C[C@H]6[C@H](OC)[C@@H]5[C@](O)(C[C@@H]6OC)[C@@](O)([C@@H](OC)[C@H]23)[C@@H]14` [MLA, methyllycaconitine], on human α7 nAChR [1] (10 nmol/L MLA, 30 μmol/L Br-IQ17B), the “Effect of MLA on α7 current evoked by Br-IQ17B” value is “inhibited; also recorded: completely blocked”. In [6], the “Effect of MLA on Br-IQ17B-evoked native α7 current” value is “completely blocked”.

Turning to `COc1cc(OC)c(NC(=O)Nc2cc(C)on2)cc1Cl` [PNU-120596], in experiment [6], the “Effect of PNU-120596 on current activated by Br-IQ17B” value is on record as “significantly enhanced”. The “Effect of PNU-120596 on current evoked by low concentration of ACh” value in [6] (PNU-120596 1 μmol/L, ACh 10 μmol/L) was “robustly increased”. Further, the “sIPSC frequency with PNU-120596 alone” value in experiment [8] (PNU-120596 1 μmol/L, 10 min, baseline 4.5±0.7 Hz) is recorded as 4.6±0.7 Hz. Further, the “sIPSC amplitude with PNU-120596 alone” value in experiment [8] (PNU-120596 1 μmol/L, 10 min, baseline 30.8±6.8 pA) was 30.6±4.7 pA. The “Effect of PNU-120596 alone on basal pERK/tERK ratio” value in experiment [11] is given as “slight increase”.

As for `CC(=O)OCC[N+](C)(C)C` [ACh, acetylcholine], the “Current evoked in hippocampal neurons” value in experiment [6] was “evoked α7 currents with fast onset and rapid decay”.
